Assay results: PMC6350621, “Small-molecules that covalently react with a human prolyl hydroxylase – towards activity modulation and substrate capture” (Chemical Communications (Cambridge, England), 2018)

Columns and labels:
PHD2_181–426 = molecular target: T1, PHD2_181–426 (Homo sapiens, UniProt Q9GZT9); assay: Non-denaturing ESI-MS of covalent adduct formation with PHD2; format: binding; conditions: equimolar PHD2/Fe(II), 37 °C
T1 construct: PHD2_181–426 (hereafter PHD2); His6 (N, cleaved yes); made in house; host or cells: bacterial culture (2x TY, kanamycin, IPTG)
Description: The interaction of the ligands with PHD2_181–426 (hereafter PHD2) was examined by non-denaturing ESI-MS, using cone voltage variation to distinguish covalent and non-covalent complexes (non-covalent interactions are typically preserved at cone voltages of 50–80 V, and dissociated at 200 V).[16]–[18] Aldehydes 1 and 2 were incubated with equimolar PHD2 and Fe(II) (37 °C; 5 or 20 min). […] Without Fe(II), neither covalent nor non-covalent adducts were observed, implying covalent conjugation involves active site Fe(II) binding, with subsequent condensation.
Fig. S2 A) Schematic representation of the assigned species formed on addition of 1 or 2 to PHD2. The results support initial non-covalent binding of the inhibitors to PHD2.Fe(II) to form B. Subsequently, condensation of a lysine residue with the aldehyde forms the covalent adduct C. (B) and (C): Non-denaturing ESI-MS data support the covalent crosslinking of 1/2 with PHD2. Conditions: PHD2 (20 µM) was incubated (37 °C, 5 or 20 min) with equimolar FeSO4 and 1 or 2, and the resulting mixtures were analysed by ESI-MS (cone voltage: 50 V or 200 V). Labelled peaks correspond to: A: Unmodified PHD2.Fe. B: Non-covalent adduct PHD2.Fe.2. C: Covalent adduct PHD2.Fe.1/2.
Fig. S6 The α,β-unsaturated amide 3 can covalently modify PHD2. (A) Schematic representation of the adducts formed upon incubation of 3 with PHD2.
PHD2. PHD2 (20 µM) was incubated (37 °C, 5 min, 1 h or 2 h) with equimolar FeSO4 and 3 or 4 before analysis by ESI-MS (cone voltage: 50 V or 200 V). Labelled peaks correspond to the following assigned complexes: A: unmodified PHD2.Fe; B: the non-covalent PHD2.Fe.3 adduct; C: the covalent PHD2.Fe.3 adduct.
2. Experimental procedures
1.1.1 Non-denaturing mass spectrometry1
Apo PHD2 was desalted using a Bio-Spin 6 Column (Bio-Rad, Hemel Hempstead, UK) into 15 mM ammonium acetate (pH 7.5). The stock solution was diluted with the same buffer to a final concentration of 100 μM. FeSO4·7H2O was dissolved in 20 mM HCl at a concentration of 100 mM. This solution was then diluted with MilliQ purified water to give a final working concentration of 100 μM. The protein was mixed with the Fe(II) solution and the inhibitor solution to give final concentrations of 20 μM PHD2, 20 μM Fe(II), and 20 μM inhibitor. The resultant solution was incubated for the appropriate time (specified in the text) at 37 […]
(5 min or 20 min) at 37 °C. After incubation, the samples were immediately analysed by ESI-MS. Data were acquired using a Q-TOF mass spectrometer (Q-TOF micro, Micromass, Altrincham, UK) interfaced with a Nanomate (Advion Biosciences, Ithaca, NY, USA) with a chip voltage of 1.70 kV and a delivery pressure 0.5 psi (1 psi = […]). The sample cone voltage was typically 200 or 50 V with a source temperature of 40 °C and with an acquisition/scan time of 10s/1s. Sample acquisition was performed in positive ion mode in the range of 2000-4000 m/z. The pressure at the interface between the atmospheric source and the high vacuum region was fixed at 6.30 mbar. External instrument calibration was achieved using sodium iodide.

PHD2 = molecular target: T2, PHD2 (Homo sapiens, UniProt Q9GZT9); assay: Peptide turnover assay (CODD hydroxylation) with MALDI-MS detection; format: biochemical; conditions: pre-incubation 0, 1, 2 and 4 h
T2 construct: PHD2_181–426 (hereafter PHD2); His6 (N, cleaved yes); made in house; host or cells: bacterial culture (2x TY, kanamycin, IPTG)

PHD1 = PHD1 (Homo sapiens, UniProt Q96KS0); assay: Denaturing MS covalent adduct formation with PHD1; format: binding; conditions: enzyme 20 μM, Fe(II) 30 μM, compound 30 μM, 37 °C, 4 h
PHD2_181–418 = molecular target: T3, PHD2_181–418 (Homo sapiens, UniProt Q9GZT9); assay: Non-denaturing ESI-MS crosslinking, 418 truncate; format: binding; conditions: equimolar FeSO4 and compound, 3 h, 37 °C, 200 V
T3 construct: Both the 418 (PHD2_181–418); His6 (N, cleaved yes); made in house; host or cells: bacterial culture (2x TY, kanamycin, IPTG)
Description: (§1) The site of crosslinking of 3 was investigated using protein variants. First, 3 was incubated with C-terminal truncated PHD2 (PHD2_181–402) and a loop deletion variant (deletion of residues 238–250, PHD2Δ). […] Thus, 3 was incubated with PHD2 constructs truncated at residues 402, 410, 414 and 418. […] Crosslinking experiments with PHD2 R411M implied that R411 is not directly involved in crosslinking (Fig. S11, ESI ^†).
Fig. S8 Temperature dependence of the rate of crosslinking of 3 with PHD2. PHD2 (20 µM) was incubated with equimolar Fe(II) and 3 in buffer (50 mM Tris, 150 mM NaCl, pH 7.5) at 4, 20 and 37 °C. The ratio of crosslinking after 1, 2, and 4 h was determined by ESI-MS under denaturing conditions (n = 2), error bars represent 1 standard deviation.
Fig. S9 Ratio of crosslinked PHD2.3 before evaluation of catalytic activity. Labelled peaks correspond to: (A): PHD2, […]
Fig. S10 Non-denaturing ESI-MS analysis of (a) PHD2 and its C-terminal truncations (b) PHD2181-418; (c) PHD2181-414;
(d) PHD2181-410; (e) PHD2181-402 in the presence of equimolar amounts of FeSO4 and 3 after 3 hours incubation at 37 °C in ammonium acetate (15 mM, pH 7.5) at a sample cone voltage of 200V. Peaks present: (A): PHD2.Fe; (B): PHD2181-

PHD3 = PHD3 (Homo sapiens, UniProt Q9H6Z9); assay: Denaturing MS covalent adduct formation with PHD3; format: binding; conditions: enzyme 20 μM, Fe(II) 30 μM, compound 30 μM, 37 °C, 4 h
HIF-1α in HeLa cells = assay: HIF-1α levels in HeLa cells by anti-HIF-1α immunoblotting; conditions: 50 or 250 µM, 6 h
[1] = molecular target: T4, PHD2Δ (deletion of residues 238–250) (Homo sapiens, UniProt Q9GZT9, DEL238-250); assay: Non-denaturing ESI-MS crosslinking, loop deletion variant; format: binding; conditions: equimolar Fe(II) and compound, 3 h, 37 °C, 200 V
T4 construct: PHD2_181–426 (hereafter PHD2); His6 (N, cleaved yes); made in house; host or cells: bacterial culture (2x TY, kanamycin, IPTG)
Description: as §1
Fig. 3 (A) Non-denaturing ESI-MS data on the flexible loop truncated (top) and C-terminal tail tuncated (bottom) versions of PHD2 in the presence of equimolar Fe(II) and 3 (3 hour incubation, 37 °C. Cone voltage: 200 V). A = [PHD2Δ + Fe], B = [PHD2Δ + Fe + 3], C = [PHD2_181–402 + Fe], D = [PHD2_181–402 + Fe + 3]. (B) MS/MS spectrum of the trypsin derived peptide 403[…]411 crosslinked to 3 identified K408 as the site of crosslinking.

T1 sequence (Q9GZT9 181-426): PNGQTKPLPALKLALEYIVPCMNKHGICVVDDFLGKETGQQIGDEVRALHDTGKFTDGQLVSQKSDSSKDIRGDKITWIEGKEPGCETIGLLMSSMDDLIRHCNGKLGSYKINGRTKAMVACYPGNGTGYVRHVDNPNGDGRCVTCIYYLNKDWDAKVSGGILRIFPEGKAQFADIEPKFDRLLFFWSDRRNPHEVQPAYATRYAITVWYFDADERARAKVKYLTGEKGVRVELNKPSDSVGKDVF
T2 sequence (Q9GZT9 181-426): as above
Sequence of PHD1 (Q96KS0 whole entry, the tested form may be a part): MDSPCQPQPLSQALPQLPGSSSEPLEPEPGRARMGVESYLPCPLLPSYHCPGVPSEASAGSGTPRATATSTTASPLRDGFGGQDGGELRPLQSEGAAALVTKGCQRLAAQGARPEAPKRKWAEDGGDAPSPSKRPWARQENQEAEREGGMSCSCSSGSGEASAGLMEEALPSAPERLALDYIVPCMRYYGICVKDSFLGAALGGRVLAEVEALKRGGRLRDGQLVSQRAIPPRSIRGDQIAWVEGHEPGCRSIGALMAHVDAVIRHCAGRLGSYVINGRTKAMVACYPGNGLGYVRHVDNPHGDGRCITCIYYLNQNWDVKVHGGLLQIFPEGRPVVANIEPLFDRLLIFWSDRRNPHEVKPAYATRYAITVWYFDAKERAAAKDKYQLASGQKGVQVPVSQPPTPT
T3 sequence (Q9GZT9 181-418): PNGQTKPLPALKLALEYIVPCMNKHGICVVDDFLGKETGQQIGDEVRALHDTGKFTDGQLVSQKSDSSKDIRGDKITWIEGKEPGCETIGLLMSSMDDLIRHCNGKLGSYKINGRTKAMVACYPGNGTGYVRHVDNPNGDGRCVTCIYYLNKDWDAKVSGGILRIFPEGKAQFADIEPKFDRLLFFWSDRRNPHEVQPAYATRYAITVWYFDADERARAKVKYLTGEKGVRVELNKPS
Sequence of PHD3 (Q9H6Z9 whole entry): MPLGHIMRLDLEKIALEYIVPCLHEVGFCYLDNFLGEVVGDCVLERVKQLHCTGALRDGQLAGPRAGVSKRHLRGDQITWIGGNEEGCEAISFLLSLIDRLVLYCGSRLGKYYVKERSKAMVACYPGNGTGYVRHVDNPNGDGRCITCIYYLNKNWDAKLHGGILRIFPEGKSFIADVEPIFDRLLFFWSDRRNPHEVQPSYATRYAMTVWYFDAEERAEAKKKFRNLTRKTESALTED
T4 sequence (Q9GZT9 with tags, fused parts or gaps DEL238-250): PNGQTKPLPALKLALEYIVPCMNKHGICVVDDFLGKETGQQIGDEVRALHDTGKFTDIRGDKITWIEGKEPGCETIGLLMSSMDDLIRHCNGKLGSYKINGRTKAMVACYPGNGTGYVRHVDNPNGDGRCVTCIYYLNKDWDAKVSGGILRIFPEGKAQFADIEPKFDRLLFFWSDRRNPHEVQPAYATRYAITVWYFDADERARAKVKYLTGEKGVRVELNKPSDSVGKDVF

Question: With `C=CC(=O)Nc1cccc(C(=O)NCC(=O)O)c1O` [compound 3] as the compound, how does the “conversion to the covalent adduct after 1 h” value (PHD2_181–426; 1 h) read?
Answer: 1/3

Question: What about the “conversion to the covalent adduct after 2 h” value (PHD2_181–426; 2 h) of the same compound?
Answer: 2/3

Question: What about the “activity of PHD2 pre-incubated with the compound” value (PHD2) of the same compound?
Answer: remained as active as the non pre-incubated, uninhibited PHD2

Question: What about the “covalent reaction with PHD1” value (PHD1) of the same compound?
Answer: did not covalently react

Question: What about the “covalent modification of 418 truncate” value (PHD2_181–418) of the same compound?
Answer: covalently modified

Question: And the “covalent reaction with PHD3” value (PHD3)?
Answer: did not covalently react

Question: And the “HIF-1α upregulation in HeLa cells” value (HIF-1α in HeLa cells)?
Answer: no upregulation of HIF-1α

Question: What about the “crosslinking with loop truncate” value [1] of the same compound?
Answer: Crosslinking was maintained
